Source: patent publication US20260356814A1, “INDOLINE DERIVATIVES AS SEROTONERGIC AGENTS USEFUL FOR THE TREATMENT OF DISORDERS RELATED THERETO” (MINDSET PHARMA INC., priority 2022, published 2026)
“Also recorded” adds a separate entry of the source.

Tests used:
human 5-HT1A receptor = molecular target: T1, human 5-HT1A receptor (Homo sapiens, UniProt P08908); assay: Human 5-HT1A: Functional FLIPR assay (agonist mode); type: cell-based; conditions: @10 μM (head); footnote: curve fitting with activation (%) @ 10 mM with RFU; RFU=Fmax−Fmin
T1 construct: expressed in transfected cells; host or cells: CHO (HTR1A&Ga15-CHO)
T1 sequence (P08908 1-422): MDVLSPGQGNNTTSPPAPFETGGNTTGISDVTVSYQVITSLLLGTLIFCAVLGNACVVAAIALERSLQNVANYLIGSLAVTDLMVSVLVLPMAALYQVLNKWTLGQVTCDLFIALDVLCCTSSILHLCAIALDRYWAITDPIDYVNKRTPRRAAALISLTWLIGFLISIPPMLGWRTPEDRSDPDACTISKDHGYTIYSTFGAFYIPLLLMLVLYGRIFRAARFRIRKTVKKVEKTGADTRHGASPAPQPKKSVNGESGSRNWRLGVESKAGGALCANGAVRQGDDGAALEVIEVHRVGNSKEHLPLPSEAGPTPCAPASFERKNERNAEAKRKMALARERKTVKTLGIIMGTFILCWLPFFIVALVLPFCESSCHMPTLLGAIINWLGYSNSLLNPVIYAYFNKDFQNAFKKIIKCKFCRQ
Experimental: The potential excitatory effects of compounds targeting on 5-hydroxytryptamine receptor 1A (5-HT1A) under agonist mode was assessed.
HTR1A&Ga15-CHO cells were cultured in DMEM/F12 medium containing 10% dialyzed FBS, 1x penicillin-streptomycin and 600 μg/mL Hygromycin B. The cells were passaged about three times a week, maintained between ~30% to ~90% confluence.
• 1. The cell culture medium (DMEM/F12 medium containing 10% dialyzed FBS, 1x penicillin-streptomycin and 600 μg/mL Hygromycin B), TrypLE™ Express and DPBS was warmed to R.T. in advance. • 2. The cell culture medium was removed from flask. Washed cells with DPBS. • 3. 1 mL TrypLE™ Express was added to the flask, mixed well by gentle shaking and cells were incubated at 37° C. for a few minutes. • 4. The cells were checked for morphological change under microscope, the digestion was stopped by adding 2 mL cell culture medium to the flask when most of cells turned to round. • 5. The cell suspension was transferred into a 15 mL centrifuge tube, and then centrifuged at 1,200 rpm for 5 minutes. • 6. The supernatant was removed. The cell pellet were resuspended with 2 mL cell culture medium. • 7. The cell density were counted using cell counter. Only cells with >85% viability were used for the assay. • 8. Cells were diluted to 4×10^5/mL with cell culture medium. • 9. 30 μL/well cell suspensions were added into a 384-well cell plate (The cell density was 12,000 cells/well). • 10. The cell plate was incubated overnight at 37° C., 5% (v/v) CO2.
• 1. On the day of experiments, culture medium was removed from the cell plate. • 2. 10 μL of assay buffer (20 mM HEPES, in 1×HBSS, pH 7.4) was added to each well of the cell plate. • 3. 2× dye solution was prepared following the manufacture's instruction of the FLIPR® Calcium 6 assay kit: • i. The dye was diluted with assay buffer. • ii. probenecid was added to the final concentration of 5 mM. • iii. Vortexed vigorously for 1-2 minutes, adjust pH to 7.4. • 4. 10 μL of 2×dye solution was added to each well of the cell plate. • 5. The cell plate was placed on plate shaker, followed by shaking at 600 rpm for 2 minutes. • 6. The plate was incubated at 37° C. for 2 hours followed by an additional 15-minute incubation at 25° C. 3.4 Prepare 3×compounds. • 1. Serotonin was prepared to the concentration of 10 mM with DMSO, 3-folds serial dilutions were performed with DMSO. • 2. Prepare the test compound to the concentration of 10 mM with DMSO, preform 3-folds serial dilutions with DMSO. • 3. The compounds were added to a 384-well compound source plate. • 4. 90 nL/well of serial diluted compounds were transferred from source plate to a 384-well compound plate by using an Echo. • 5. 30 μL/well of assay buffer was added to the compound plate. • 6. The plate was mixed on-plate shaker for 2 minutes. 3.5 FLIPR assay • 1. After the cells incubate with dye solution, the cell plate, compound plate containing 3×compounds and FLIPR tips were placed into FLIPR. • 2. 10 μL of 3×compounds were transferred from the compound plate to the cell plate by FLIPR. • 3. The plate was read for 160 sec with 1 sec interval to obtain the data of agonist mode.
(§1) • 1. The normalized fluorescence reading (RFU) was calculated as shown below, wherein Fmax and Fmin stand for maximum and minimum of calcium signal during defined time window:
RFU=Fmax−Fmin • 2. EC50 was calculated by fitting RFU against log of compound concentrations with Hill equation using XLfit.

Plasma stability, rat = type: in vitro ADME; conditions: 37° C.
Experimental: (§2) • a. […] The final concentration of organic solvents was 0.5%. The assay was performed in duplicated. • b.
(§3) All calculations were carried out using Microsoft Excel.

5-HT2 receptor = conditions: daily administration; cited from earlier work
[1] = system: depression and anxiety associated with life-threatening disease; conditions: in a supportive setting; cited from earlier work
[2] = system: brain's default mode network; conditions: intravenously administered; cited from earlier work
Plasma stability, human = type: in vitro ADME; conditions: 37° C.
Experimental: as §2, §3

Plasma stability, mouse = type: in vitro ADME; conditions: 37° C.
Experimental: as §2, §3

human 5-HT2A receptor = human 5-HT2A receptor (Homo sapiens, UniProt P28223); assay: Human 5-HT2A: Radioligand binding assay ([3H]-ketanserin); conditions: [3H]-ketanserin displacement, 27° C., 90 min, pH 7.4; read-out: h5-HT2A, IC50
Experimental: Exemplary compounds of Formula I were evaluated functionally using FLIPR assay for their effect on h5-HT2A receptor under agonist mode. The objective of this study was to evaluate the binding properties of exemplary compounds of Formula I on 5-hydroxytryptamine receptor 2A (5-HT2A). • Human 5-HT2A: Radioligand binding assay:
• i. The assay buffer was prepared following the table below.
• Adjust pH to 7.4 followed by […] sterile filtration • ii. 8 doses of reference and test compounds starting from 10 mM stock solution as required was prepared by 5-fold serial dilutions with 100% (v/v) DMSO. • iii. UniFilter-96 GF/B plate was pretreated: • a. 50 μl/well of 0.5% (v/v) PEI was added to UniFilter-96 […] plates. The plates were sealed and incubated at 4° C. for 3 hrs. • b. After incubation, the plates were washed 3 times with ice-cold wash buffer (50 mM Tris, pH7.4). • iv. The assay plate was prepared: • a. Cell membrane was diluted with assay buffer and 330 μl/well was added to 96 round deep well plates to reach a concentration of 20 μg/well. • b. 8 concentrations of reference or test compounds were prepared and 110 μl/well was added to 96 round deep well plates. • c. [3H]-ketanserin was diluted with assay buffer to 5 nM (5X final concentration) and 110 μl/well was added to 96 round deep well plates. • v. The plate was centrifuged at 1000 rpm for 30 secs and then agitated at 600 rpm, R.T. for 5 min. • vi. The plates were sealed and the plate incubated at 27° C. for 90 min. • vii. The incubation was stopped by vacuum filtration onto GF/B filter plates followed by 4 times washing with ice-cold wash buffer (50 mM Tris, pH7.4). • viii. The plates were dried at 37° C. for 45 min. • ix. The filter plates were sealed and 40 μl/well of scintillation cocktail was added. • x. The plate was read by using a Microbeta2 microplate counter.
• 1. For reference and test compounds, the results were expressed as % Inhibition, using the normalization equation: N=100−100×(U−C2)/(C1-C2), where U is the unknown value, C1 is the average of high controls, and C2 is the average of low controls. • 2. The IC50 was determined by fitting percentage of inhibition as a function of compound concentrations with Hill equation using XLfit.

[3] = molecular target: T2, human 5-HT2A (h5-HT2A) receptor (Homo sapiens, UniProt P28223); assay: FLIPR assay: human 5-HT2A (agonist mode); type: cell-based; conditions: @10 μM (head); footnote: curve fitting with activation (%) @ 10 mM with RFU; RFU=Fmax−Fmin
T2 construct: expressed in transfected cells; host or cells: HEK293 (HTR2A&Ga15-HEK293, tetracycline-induced)
Experimental: Assessment of the effect of exemplary compounds of Formula I targeting on human 5-HT2A (h5-HT2A) receptor under agonist mode.
HTR2A&Ga15-HEK293 cells were cultured in DMEM medium containing 10% dialyzed FBS and 1x penicillin-streptomycin, 100 μg/mL Hygromycin B and 300 μg/mL G418. The cells were passaged about three times a week, maintained between ~30% to ~90% confluence.
• 1. The cell culture medium (DMEM medium containing 10% dialyzed FBS and 1× penicillin-streptomycin, 100 μg/mL Hygromycin B and 300 μg/mL G418), TrypLE™ Express and DPBS to R.T. was warmed in advance. • 2. For induction, 1 μg/ml tetracycline (final concentration) was added to cell culture medium and incubated for 48 hours prior to seeding cells into plate at 37° C., 5% (v/v) CO2. The cell culture medium was removed from flask. Cells were washed with DPBS. • 3. 2 mL TrypLE™ Express was added to the flask, mixed well by gentle shaking and cells were incubated at 37° C. for a few minutes. • The cells were checked for morphological change under microscope, the digestion was stopped by adding 4 mL cell culture medium to the flask when most of cells turned to round. • 5. The cell suspension was transferred into a 15 mL centrifuge tube, and then centrifuged at 1,200 rpm for 5 minutes. • 6. The supernatant was removed. The cell pellet was resuspended with 2 mL cell culture medium. • 7. The cell density was counted using cell counter. Only cells with >85% viability were used for the assay. • 8. Cells were diluted to 6.67×10^5/mL with cell culture medium. • 9. 30 μL/well cell suspensions added into a 384-well cell plate (The cell density was 20,000 cells/well). • 10. The cell plate was incubated overnight at 37° C., 5% (v/v) CO2. 2.3 Cell handling • 1. On the day of experiments, culture medium was removed from the cell plate. • 2. 10 μL of assay buffer (20 mM HEPES, in 1×HBSS, pH 7.4) was added to each well of the cell plate. • 3. 2×dye solution was prepared following the manual of the FLIPR® Calcium 6 Assay Kit: • i. The dye was diluted with assay buffer. • ii. Probenecid was added to the final concentration of 5 mM. • iii. Vortexed vigorously for 1-2 minutes. • 4. 10 μL of 2× dye solution was added to each well of the cell plate • 5. The cell plate was placed on plate shaker, followed by shaking at 600 rpm for 2 minutes. • 6. The plate was incubated at 37° C. for 2 hours followed by an additional 15-minute incubation at 25° C. 2.4 Prepare 3×compound • 1. Serotonin HCl was prepared to the concentration of 10 mM with DMSO. • 2. The test compounds were prepared to the concentration of 10 mM with DMSO. • 3. The compounds were added to a 384-well compound source plate. • 4. 3-folds serial dilutions were performed with DMSO. • 5. 90 nL/well of serial diluted compounds was transferred from source plate to a 384-well compound plate by using an Echo. • 6. 30 μL/well of assay buffer (20 mM HEPES in 1x HBSS, pH 7.4) was added to the compound plate. • 7. The plate was mixed on-plate shaker for 2 minutes.
• 1. After the cells were incubated with dye solution, the cell plate, compound plate containing 3×compounds and FLIPR tips were placed into FLIPR. • 2. 10 μL of 3×compounds transferred from the compound plate to the cell plate by FLIPR. • 3. The plate was read for 160 sec with 1 sec interval and the data of agonist mode was obtained.
as §1
RFU=Fmax−Fmin • 2. EC50 by fitting RFU against log of compound concentrations with Hill equation was calculated using XLfit.
The following procedure can also be followed: • 1. Cells are cultured in cell culture medium (DMEM containing 10% FBS, 1× penicillin-streptomycin 300 μg/ml G418 and 100 μg/ml hygromycin B) at 37° C., 5% (v/V) CO2. • 2. One day before the assays, the cells are detached using TrypLE™ Express and cells are counted using cell counter.

[4] = 30 min, read-out: Remaining Percentage (%), 30 min
[5] = 60 min, read-out: Remaining Percentage (%), 60 min
[6] = >255.85 if remaining at 60 min greater than 85%

Sequence of human 5-HT2A receptor (P28223 whole entry): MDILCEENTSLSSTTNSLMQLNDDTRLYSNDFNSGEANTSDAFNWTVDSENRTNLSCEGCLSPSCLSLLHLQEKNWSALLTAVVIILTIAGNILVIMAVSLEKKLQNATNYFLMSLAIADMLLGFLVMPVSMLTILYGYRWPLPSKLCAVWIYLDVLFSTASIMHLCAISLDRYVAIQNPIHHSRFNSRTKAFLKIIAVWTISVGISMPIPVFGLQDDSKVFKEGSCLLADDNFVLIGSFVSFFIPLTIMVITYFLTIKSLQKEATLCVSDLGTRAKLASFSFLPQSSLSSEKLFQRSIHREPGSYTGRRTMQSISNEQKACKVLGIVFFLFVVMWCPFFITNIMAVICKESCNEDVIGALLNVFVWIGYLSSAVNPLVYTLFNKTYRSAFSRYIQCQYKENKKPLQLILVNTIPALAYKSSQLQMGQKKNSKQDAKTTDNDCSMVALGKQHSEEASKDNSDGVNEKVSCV
T2 sequence (P28223 whole entry): as above

With `CN(C)CCc1c[nH]c2cccc(O)c12` [Psilocin, 4-hydroxy-N,N-dimethyltryptamine, reference compound] the “RFU@10 μM” value (human 5-HT1A receptor) was 140 RFU.
With `CC[C@H](C)C(=O)O[C@H]1C[C@@H](C)C=C2C=C[C@H](C)[C@H](CC[C@@H]3C[C@@H](O)CC(=O)O3)[C@H]21` [Lovastatin, reference compound] the “Remaining Percentage (%), 0 min” value (Plasma stability, rat; 0 min) was 100.00%, the remaining at 0.5 h (Plasma stability, rat; [4]) was 0.61% and the remaining at 1 h (Plasma stability, rat; [5]) was 0.33%.
In the case of `CCN(CC)C(=O)[C@@H]1C=C2c3cccc4[nH]cc(c34)C[C@H]2N(C)C1` [LSD], the “5-HT2 receptor density in rat brain” value (5-HT2 receptor) is listed as “selectively decreased 5-HT2 receptor density in the rat brain; also recorded: reduce 5-HT2 receptor density in rat brain”, the “anti-depressant and anxiolytic effects” value [1] is listed as “significant and sustained anti-depressant and anxiolytic effects” and the “oscillatory power in areas of the brain's default mode network” value [2] is listed as “decreases in oscillatory power in areas of the brain's default mode network”.
In the case of `CC(C)[N+](C)(CCOC(=O)C1c2ccccc2Oc2ccccc21)C(C)C` [Propantheline, reference compound], the “Remaining Percentage (%), 0 min” value (Plasma stability, human; 0 min) is reported as 100.00%, the remaining at 0.5 h (Plasma stability, human; [4]) is reported as 29% and the remaining at 1 h (Plasma stability, human; [5]) is reported as 2.58%. The half-life (Plasma stability, human; [6]) was 11.4 min, the “Remaining Percentage (%), 0 min” value (Plasma stability, mouse; 0 min) was 100.00% and the remaining at 0.5 h (Plasma stability, mouse; [4]) was 61.6%. The half-life (Plasma stability, mouse; [6]) was 37.1 min.
With `COc1ccc2c(c1)N(C[C@@H]1CCCN1C)CC2` [(S)-I-58, (S)-6-Methoxy-1-((1-methylpyrrolidin-2-yl)methyl) indoline] the IC50 (human 5-HT2A receptor) was greater than 30 µM and the “RFU@10 μM” value [3] was 203 RFU.
